Data: patent US20050209157A1, “Short bioactive peptides and methods for their use” (priority 2001, published 2005)
Values joined by “and” are separate entries in the source; they are usually repeats but may differ in a detail not shown here. Equal entries are not always repeated. Where two headings read alike, the source gives them in different places. No end group written: not given here.

Legend:
[1] = system: Candida albicans 105; type: cell-based; details: Table 13; in µg/mL
[2] = system: Pseudomonas aeruginosa 105663; type: cell-based; details: Table 9; in µg/mL
[3] = system: P. aeruginosa H374; type: cell-based, Pseudomonas aeruginosa; details: for MIC P. aeruginosa H374: in µg/mL
[4] = system: Pseudomonas aeruginosa 100609; type: cell-based; details: Table 9; in µg/mL
[5] = system: E. coli UB1005; type: cell-based, Escherichia coli; details: for MIC E. coli UB1005: Table 12
[6] = system: Pseudomonas aeruginosa H187; type: cell-based; details: in µg/mL
[7] = system: S. epidermidis C621; type: cell-based, Staphylococcus epidermidis; details: for MIC S. epidermis C621: Table 13, in µg/mL
[8] = system: S. aureus (MRSA); type: cell-based, Staphylococcus aureus; details: for MIC S. aureus SAP0017: Table 13, strain SAP0017, in µg/mL
[9] = system: S. typhimurium 14028S; type: cell-based, Salmonella typhimurium; details: for MIC S. typhimurium 14028S: Table 12
[10] = system: Candida glabrata ATCC15126; experiment: Antimicrobial assays II, NCCLS broth microdilution MIC; type: cell-based; details: in µg/mL
[11] = system: S. pyogenes M76; experiment: as above; type: cell-based, Streptococcus pyogenes; details: mean of three; 16 to 20 hours at 35° C.
[12] = system: WI38; details: MTT, 24 hours with peptide; normal fibroblast line
[13] = system: yeast (Saccharomyces cerevisiae); experiment: Antimicrobial assay I, yeast assay in RPMI 1640; type: cell-based; details: RPMI 1640 media
[14] = system: S. pyogenes ATCC19615; experiment: Antimicrobial assays II, NCCLS broth microdilution MIC; type: cell-based, Streptococcus pyogenes; details: mean of three, in µg/mL
[15] = in vitro; details: human, WI38 normal lung fibroblast cells, LD50 WI38, WI38 normal lung fibroblast line, MTT, 24 hours with peptide
[16] = system: P. aeruginosa H774; type: cell-based, Pseudomonas aeruginosa; details: P. aeruginosa H744; nalidixic acid + peptide at ¼ MIC; 0.5 or less = synergy
Method in brief: (§1)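 Efflux-mutant strains were tested with two-fold serial dilutions of chloramphenicol or nalidixic acid, alone and with peptide held at ¼ of its own MIC.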

[17] = system: P. aeruginosa H374; type: cell-based, Pseudomonas aeruginosa; details: for FIC Index: 0.5 or less = synergy
Method in brief: as §1

[18] = system: P. aeruginosa; type: cell-based, Pseudomonas aeruginosa; details: P. aeruginosa H744; MIC of nalidixic acid with peptide at ¼ MIC
Method in brief: as §1

[19] = system: Pseudomonas aeruginosa ATCC 9027; experiment: Antimicrobial assay I, MIC by OD measurement; type: cell-based; details: 37° C. for 24 hours, absorbance 620 nm
[20] = system: Staphylococcus aureus ATCC 6538; experiment: Antimicrobial assay I, MIC by OD measurement; type: cell-based; details: 37° C. for 24 hours, absorbance 620 nm
[21] = system: HeLaS3; experiment: Anti-cancer assay, MTT, LD50; type: cell-based; details: 24 hours with peptide, cervical carcinoma
From the text: (§2) Numbers are LD50 values (μg/mL).

[22] = system: BMKC; experiment: Anti-cancer assay, MTT, LD50; type: cell-based; details: BMKC cloned melanoma line, 24 hours with peptide
From the text: as §2

[23] = system: MCF7; experiment: Anti-cancer assay, MTT, LD50; type: cell-based; details: MCF7 breast adenocarcinoma line, MTT, 24 hours with peptide
From the text: as §2

[24] = system: PC3; experiment: Anti-cancer assay, MTT, LD50; type: cell-based; details: 24 hours with peptide, prostate adenocarcinoma
From the text: as §2

[25] = system: H1299; experiment: Anti-cancer assay, MTT, LD50; type: cell-based; details: 24 hours with peptide, lung large cell carcinoma
From the text: as §2

[26] = system: SW480; experiment: Anti-cancer assay, MTT, LD50; type: cell-based; details: SW480 colon adenocarcinoma line, 24 hours with peptide
From the text: as §2

[27] = system: S. pneumoniae C719; experiment: Antimicrobial assays II, NCCLS broth microdilution MIC; type: cell-based, Streptococcus pneumoniae; details: mean of three, in µg/mL
[28] = in vitro; type: cell-based, human; details: human, human red blood cells, pH 7, hemolytic assay, concentration at 50% hemolysis, 1 hour at 37° C.; read-out: LD50
[29] = system: S. pneumoniae C718; experiment: Antimicrobial assays II, NCCLS broth microdilution MIC; type: cell-based, Streptococcus pneumoniae; details: mean of three
[30] = mean of three, 16 to 20 hours at 35° C.
[31] = mean of three, 16 to 20 hours at 35° C., in µg/mL

FAKKLAKLALKLAKL-NH2 [P44 (26)]
MIC C. albicans 105 [1]: 8
MIC P. aeruginosa Tb 105663 [2]: 16
MIC P. aeruginosa H374 ([3]; Table 9): 8
MIC P. aeruginosa H374 ([3]; Table 12): 8
MIC P. aeruginosa Tb 100609 [4]: 8
MIC E. coli UB1005 [5]: 1 µg/mL
MIC P. aeruginosa H187 ([6]; Table 9): 8
MIC P. aeruginosa H187 ([6]; Table 12): 8
MIC S. epidermis C621 [7]: 4
MIC S. aureus SAP0017 [8]: 8
MIC S. typhimurium 14028S [9]: 4 µg/mL
MIC C. glabrata ATCC15126 ([10]; Table 13): 16

FALALKALKKALKKLKKALKKAL-NH2 [P2 (2)]
MIC P. aeruginosa Tb 105663 [2]: 16
MIC P. aeruginosa H374 ([3]; Table 9): 16
MIC P. aeruginosa Tb 100609 [4]: 32
MIC P. aeruginosa H187 ([6]; Table 9): 16

FALLKALLKKAL-NH2 [P177 (138)]
MIC C. albicans 105 [1]: 16
MIC P. aeruginosa Tb 105663 [2]: 32
MIC P. aeruginosa H374 ([3]; Table 9): 16
MIC P. aeruginosa H374 ([3]; Table 12): 16
MIC P. aeruginosa Tb 100609 [4]: 32
MIC E. coli UB1005 [5]: 8 µg/mL
MIC P. aeruginosa H187 ([6]; Table 9): 16
MIC P. aeruginosa H187 ([6]; Table 12): 16
MIC S. epidermis C621 [7]: 4
MIC S. aureus SAP0017 [8]: 8
MIC S. typhimurium 14028S [9]: 16 µg/mL
MIC C. glabrata ATCC15126 ([10]; Table 13): 16

GIGKFLKKAKKFGKAFVKILKK-NH2 [P42 (24)]
MIC C. albicans 105 [1]: 32
MIC P. aeruginosa Tb 105663 [2]: 8
MIC P. aeruginosa H374 ([3]; Table 9): 4
MIC P. aeruginosa H374 ([3]; Table 12): 4
MIC P. aeruginosa Tb 100609 [4]: 8
MIC E. coli UB1005 [5]: 4 µg/mL
MIC P. aeruginosa H187 ([6]; Table 9): 8
MIC P. aeruginosa H187 ([6]; Table 12): 8
MIC S. epidermis C621 [7]: 2
MIC S. aureus SAP0017 [8]: 16
MIC S. typhimurium 14028S [9]: 8 µg/mL
MIC C. glabrata ATCC15126 ([10]; Table 13): 64

CC(C)C[C@H](NC(=O)[C@H](C)NC(=O)[C@H](CC(C)C)NC(=O)[C@H](CCCCN)NC(=O)[C@H](C)NC(=O)[C@H](CC(C)C)NC(=O)[C@H](CCCCN)NC(=O)[C@H](CCCCN)NC(=O)[C@H](C)NC(=O)[C@H](CC(C)C)NC(=O)[C@H](CCCCN)NC(=O)[C@H](C)NC(=O)[C@H](CC(C)C)NC(=O)[C@H](CCCCN)NC(=O)[C@H](CCCCN)NC(=O)[C@H](C)NC(=O)[C@@H](N)Cc1ccccc1)C(=O)O [P61 (41)]
MIC P. aeruginosa Tb 105663 [2]: 8
MIC P. aeruginosa H374 ([3]; Table 9): 4
MIC P. aeruginosa Tb 100609 [4]: 16
MIC P. aeruginosa H187 ([6]; Table 8): 8
MIC P. aeruginosa H187 ([6]; Table 9): 8
MIC C. glabrata ATCC15126 ([10]; Table 8): 32

FAVGLRAIKRALKKLRRGVRKVAKDL-NH2 [P157 (119)]
MIC P. aeruginosa Tb 105663 [2]: 16
MIC P. aeruginosa H374 ([3]; Table 9): 8
MIC P. aeruginosa Tb 100609 [4]: 16
MIC P. aeruginosa H187 ([6]; Table 8): 8
MIC P. aeruginosa H187 ([6]; Table 9): 8
MIC C. glabrata ATCC15126 ([10]; Table 8): 64

FAKKLKKLAKLAKKL-NH2 [P46]
S. pyogenes M76 MIC [11]: 8 µg/mL
WI38 LD50 [12]: 200 µg/mL
yeast (MIC or MFC) [13]: 50 µg/mL
S. pyogenes MIC [14]: 16
CC50 at 24 h [15]: 200 µg/mL
FIC Index [16]: 1.25
MIC Cm-comb. ([17]; MIC of chloramphenicol with peptide at ¼ MIC): 8 µg/mL
MIC Nal-comb. ([17]; MIC of nalidixic acid with peptide at ¼ MIC): 2500 µg/mL
FIC Index ([17]; chloramphenicol + peptide at ¼ MIC): 0.75
FIC Index ([17]; nalidixic acid + peptide at ¼ MIC, FIC=0.25+MIC comb/MIC alone): 0.75
MIC Nal-comb. [18]: 624 µg/mL
P. aeruginosa H374 MIC [3, 30]: 4 µg/mL
paerug9027 (MIC) [19]: 5 µg/mL
staph6538 (MIC) [20]: 10 µg/mL
E. coli UB1005 MIC [5, 31]: 8 and 4
HeLaS3 LD50 [21]: 280 µg/mL
LD50 BMKC [22]: 150 µg/mL
LD50 MCF7 [23]: 300 µg/mL
PC3 LD50 [24]: 280 µg/mL
H1299 LD50 [25]: 290 µg/mL
LD50 SW480 [26]: 160 µg/mL
S. pneumoniae MIC [27]: 128
S. epidermidis C621 MIC [7, 30]: 8 µg/mL
HC50 at 1 h [28]: 900 µg/mL
S. aureus (MRSA) MIC [8, 30]: 64 µg/mL
S. pneumoniae MIC [29]: 64 µg/mL
S. typhimurium 14028S MIC [9, 31]: 16 and 8
